We go through three molecules from patent US20080318778A1, “Agriculture Composition Method Comprising Nitric Oxide Generating Agent” (University of Sheffield, priority 2004, published 2008).

In one assay the test system is bean cv. Orfeo INIA. Kind of assay: Weekly spraying of field-grown bean plants, effect on yield (pods/plant, seed/plant). The conditions noted are these: sprayed every week for two months until pod setting, NaNO2 at 200 μM, AsA at 100 μM, mixture AsA/NaNO2 at 100 μM/200 μM, control sprayed with water. It is filed as in vivo, Phaseolus vulgaris. As for the experimental part: Plants of bean cv Orfeo INIA were grown in rows 80 cm apart and at a density of 10 plants/m, during the 2001 Southern Spring in the Experimental Station of the Univ. of Chile, Santiago. Plants were irrigated twice a week with abundant water in order to avoid water stress at any developmental stage. Phytosanitary, weed and fertilizer conditions of the plant was controlled as recommended for commercial crop.
One month old plants were sprayed every week for a two month period, until pod setting with: NaNO2 at 200 μM; AsA at 100 μM and a mixture of AsA/NaNO2 at […]. Control plants were sprayed with water.

In another assay the test system is grapevine cv Sultana. Nature of the assay: Spraying of dormant grapevine cuttings, onset of bud burst in growth chamber. The conditions noted are these: H2CN2 2.5% spray. The assay is classed as in vivo, Vitis vinifera L. As for the experimental part: Cuttings of grapevine cv Sultana with three dormant buds each were collected from a vineyard located at Antumapu Experimental Station, University of Chile, by the end of May 2003 (Autumn South Hemisphere). After fungicide treatment, they were kept wrapped up with plastic for one week in a dark and cold chamber at 7° C. day/night. […] The number of buds burst was registered every day after the first bud was detected starting to growth. This moment was considered as the initiation of the bud burst.

Regarding `O=C1O[C@H]([C@@H](O)CO)C(O)=C1O` [AsA, ascorbic acid], the “yield (Number of pods/plant and Number of seed/plant)” value in the assay with bean cv. Orfeo INIA was “neither AsA or NaNO2 alone had any effect on yield”.

With `O=NO` [NaNO2, sodium nitrite], the “yield (Number of pods/plant and Number of seed/plant)” value with bean cv. Orfeo INIA is “neither AsA or NaNO2 alone had any effect on yield”.

For the molecule `N#CN` [cyanamide], in the assay on grapevine cv Sultana, the “strength of effect on bud burst, AsA/NaNO2 compared with cyanamide” value is recorded as “The effect was not as strong as with cyanamide”.
